The record followed here is PubChem BioAssay (NCI).

Some test systems named below: K-562 leukemia; NCI-H226 lung; TK-10 renal; SNB-75 CNS; SF-268 CNS; EKVX NSCLC; RXF 393 renal; HL-60(TB) leukemia; SF-539 CNS; OVCAR-4 ovarian.
Common to all, as to experiment: NCI-60 cell line screen, 48 h

Each structure is given as a SMILES string. Where “and” joins values, the source holds several entries; their conditions need not be identical. Identical values can stand only once.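 Values below derive from 48-hour exposures of cells grown in 96-well plates, with endpoints linearly interpolated between the two concentrations bracketing the appropriate inhibition level. At the GI50, growth is halved. TGI marks complete inhibition of growth.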

Consider `C=C(CNCCO)[C@@H]1CC[C@]2(CO)CC[C@]3(C)[C@H](CC[C@@H]4[C@@]5(C)CCC(N)C(C)(C)[C@@H]5CC[C@]43C)[C@@H]12` (some centres undefined), for which the GI50 in the experiment on K-562 leukemia is 1.48 µM; with NCI-H226 lung it was 11 µM; in the experiment on TK-10 renal, 2.54 µM; in the experiment with SNB-75 CNS, 1.4 µM; in the experiment on SF-268 CNS, 2.61 µM; in the experiment on EKVX NSCLC, 4.59 µM. In addition, the GI50 with RXF 393 renal was 1.53 µM; in the experiment on HL-60(TB) leukemia it was 1.89 µM; in the experiment with SF-539 CNS it was 1.75 µM; in the experiment on OVCAR-4 ovarian it was 3.42 µM. Besides, the TGI in the experiment with K-562 leukemia was found to be 3.33 µM; in the experiment with NCI-H226 lung it was 27.9 µM; in the experiment on TK-10 renal, 7.07 µM; with SNB-75 CNS it was 3.93 µM; in the experiment with SF-268 CNS it was 10.3 µM; in the experiment with EKVX NSCLC, 18.1 µM. Besides, the TGI was found to be 3.08 µM with RXF 393 renal, 4.1 µM with HL-60(TB) leukemia, 3.21 µM with SF-539 CNS and 13.6 µM in the experiment on OVCAR-4 ovarian.

Take `COc1ccc(NC(=O)c2cc(OC)cc(OC)c2)cc1`: the TGI is greater than 100 µM in the experiment on K-562 leukemia; greater than 100 µM in the experiment on NCI-H226 lung; greater than 100 µM in the experiment on TK-10 renal; greater than 83.6 µM in the experiment with SNB-75 CNS; greater than 100 µM in the experiment on SF-268 CNS; greater than 100 µM in the experiment with EKVX NSCLC. For the same molecule, the TGI was 55.9 µM in the experiment on RXF 393 renal, 39.1 µM in the experiment with HL-60(TB) leukemia, greater than 70.3 µM with SF-539 CNS and greater than 100 µM in the experiment on OVCAR-4 ovarian.

For the molecule `NS(=O)(=O)c1ccccc1C(=O)N/N=C(\c1nc2ccc([N+](=O)[O-])cc2[nH]c1=O)C(O)c1ccc([N+](=O)[O-])cc1` (centres undefined), the TGI with K-562 leukemia, with NCI-H226 lung, in the experiment on TK-10 renal, in the experiment with SNB-75 CNS, with SF-268 CNS and in the experiment with EKVX NSCLC was greater than 100 µM in each case. Further, the TGI with RXF 393 renal, in the experiment with HL-60(TB) leukemia, in the experiment with SF-539 CNS and in the experiment with OVCAR-4 ovarian was greater than 100 µM in each case.

As for `CCc1ccc2c(c1)C(=O)c1c-2n(CCCBr)c(=O)c2cc([N+](=O)[O-])ccc12`, the GI50 with K-562 leukemia is greater than 50 µM; with NCI-H226 lung, 27.7 µM; in the experiment with TK-10 renal, 15 µM; with SNB-75 CNS it was 7.88 µM; in the experiment on SF-268 CNS, 15.9 µM; in the experiment on EKVX NSCLC, greater than 50 µM. Further, the GI50 was 21.8 µM in the experiment with RXF 393 renal, greater than 50 µM in the experiment on HL-60(TB) leukemia, 28.4 µM with SF-539 CNS and 48.1 µM in the experiment with OVCAR-4 ovarian. Besides, the TGI is greater than 50 µM in the experiment on K-562 leukemia; greater than 50 µM with NCI-H226 lung; greater than 50 µM with TK-10 renal; 19.9 µM in the experiment on SNB-75 CNS; greater than 50 µM in the experiment on SF-268 CNS; greater than 50 µM in the experiment on EKVX NSCLC. Besides, the TGI in the experiment on RXF 393 renal, with HL-60(TB) leukemia, in the experiment on SF-539 CNS and in the experiment on OVCAR-4 ovarian was greater than 50 µM each time.

For `NC(CSC(c1ccccc1)(c1ccccc1)c1ccc2c(c1)OCO2)C(=O)O` (centres undefined), the GI50 in the experiment with K-562 leukemia was 0.406 µM; in the experiment with NCI-H226 lung, 15.9 µM; in the experiment with TK-10 renal, 10.6 µM; in the experiment with SNB-75 CNS it was 0.283 µM; in the experiment on SF-268 CNS it was 0.82 µM; with EKVX NSCLC, 0.625 µM. In addition, the GI50 is 0.499 µM in the experiment on RXF 393 renal, 0.313 µM in the experiment on HL-60(TB) leukemia, 0.392 µM in the experiment with SF-539 CNS and 7.81 µM with OVCAR-4 ovarian. Further, the TGI with K-562 leukemia is greater than 100 µM; in the experiment on NCI-H226 lung it was greater than 84.8 µM; with TK-10 renal, greater than 100 µM; in the experiment with SNB-75 CNS, 7.06 µM; in the experiment with SF-268 CNS it was greater than 77.6 µM; in the experiment on EKVX NSCLC, 79.4 µM. Further, the TGI in the experiment with RXF 393 renal is 54.1 µM; in the experiment with HL-60(TB) leukemia, 0.836 µM; in the experiment with SF-539 CNS, greater than 41 µM; with OVCAR-4 ovarian, greater than 81.6 µM.

With `O=C(/C=C/c1ccccc1Cl)c1ccc(Cl)c(Cl)c1`, the TGI in the experiment with K-562 leukemia was 67.9 µM; in the experiment with NCI-H226 lung, greater than 100 µM; in the experiment with TK-10 renal, 38.8 µM; with SNB-75 CNS it was 27.3 µM; in the experiment on SF-268 CNS it was 33.7 µM; in the experiment with EKVX NSCLC it was 37.4 µM. The TGI in the experiment with RXF 393 renal is 26 µM; in the experiment on HL-60(TB) leukemia it was 60.7 µM; in the experiment with SF-539 CNS, 33.1 µM; in the experiment on OVCAR-4 ovarian, 25.5 µM.

On to `O=C1c2cccnc2-c2nc(-c3ccccc3[N+](=O)[O-])cc3c2c1nc1ccccc13`, for which the GI50 in the experiment with K-562 leukemia is greater than 28.8 µM; with NCI-H226 lung it was greater than 100 µM; in the experiment with TK-10 renal, 14.7 µM; with SNB-75 CNS it was 17.3 µM; in the experiment on SF-268 CNS it was 6.39 µM; in the experiment on EKVX NSCLC, 31.6 µM. Besides, the GI50 was 20.7 µM in the experiment with RXF 393 renal, greater than 100 µM in the experiment on HL-60(TB) leukemia, 6.3 µM with SF-539 CNS and 6.63 µM in the experiment on OVCAR-4 ovarian. Besides, the TGI in the experiment on K-562 leukemia is greater than 100 µM; with NCI-H226 lung, greater than 100 µM; in the experiment with TK-10 renal it was 36.3 µM; in the experiment on SNB-75 CNS, 52 µM; with SF-268 CNS it was greater than 69.1 µM; in the experiment with EKVX NSCLC it was greater than 74.3 µM. For the same molecule, the TGI with RXF 393 renal was 98.3 µM; in the experiment with HL-60(TB) leukemia, greater than 100 µM; in the experiment with SF-539 CNS, 24.3 µM; in the experiment on OVCAR-4 ovarian, greater than 70.4 µM.

On to `CC1(C)COC(c2ccc(C(F)(F)F)cc2C(O)c2ccc3ccccc3c2)=N1` (centres undefined), for which the GI50 in the experiment on K-562 leukemia is greater than 100 µM; with NCI-H226 lung it was greater than 10 µM; in the experiment with TK-10 renal, greater than 100 µM; in the experiment on SNB-75 CNS it was greater than 10 µM; with SF-268 CNS it was greater than 10 µM; in the experiment on EKVX NSCLC it was greater than 100 µM. For the same molecule, the GI50 in the experiment with RXF 393 renal was greater than 10 µM; with HL-60(TB) leukemia it was greater than 10 µM; in the experiment on OVCAR-4 ovarian, greater than 100 µM. In addition, the TGI was greater than 100 µM with K-562 leukemia; greater than 100 µM with NCI-H226 lung; greater than 100 µM with TK-10 renal; > 10 µM and 37.9 µM with SNB-75 CNS; greater than 100 µM with SF-268 CNS; greater than 100 µM in the experiment with EKVX NSCLC. The TGI was > 10 µM and 44.3 µM in the experiment with RXF 393 renal; greater than 100 µM in the experiment with HL-60(TB) leukemia; greater than 100 µM with SF-539 CNS; greater than 100 µM in the experiment on OVCAR-4 ovarian.
